{
  "source": "patent US20080200444A1",
  "about": "“SOLUBLE EPOXIDE HYDROLASE INHIBITORS” (Arete Therapeutics, Inc., priority 2006, published 2008)",
  "test_system": "soluble epoxide hydrolase (sEH)",
  "test": "Fluorescent assay for mouse and human soluble epoxide hydrolase (CMNPC substrate)",
  "assay_type": "biochemical",
  "conditions": "inhibitor at 50 nM; recombinant sEH, CMNPC substrate 5 μM, 30° C., pH 7.0; mouse or human enzyme not given",
  "text": "Fluorescent Assay for Mouse and Human Soluble Epoxide Hydrolase\nRecombinant mouse sEH (MsEH) and human sEH (HsEH) were produced in a baculovirus expression system as previously reported. Grant et al., J. Biol. Chem., 268:17628-17633 (1993); Beetham et al., Arch. Biochem. Biophys., 305:197-201 (1993). The expressed proteins were purified from cell lysate by affinity chromatography. Wixtrom et al., Anal. Biochem., 169:71-80 (1988). Protein concentration was quantified using the Pierce BCA assay using bovine serum albumin as the calibrating standard. The preparations were at least 97% pure as judged by SDS-PAGE and scanning densitometry. They contained no detectable esterase or glutathione transferase activity which can interfere with the assay. The assay was also evaluated with similar results in crude cell lysates or homogenate of tissues.\nThe IC50s for each inhibitor were according to the following procedure:\nCyano(2-methoxynaphthalen-6-yl)methyl(3-phenyloxiran-2-yl)methyl carbonate (CMNPC; Jones P. D. et. al.; Analytical Biochemistry 2005; 343: pp.66-75)\nBis/Tris HCl 25 mM pH 7.0 containing 0.1 mg/mL of BSA (buffer A)\nCMNPC at 0.25 mM in DMSO.\nMother solution of enzyme in buffer A (Mouse sEH at 6 μg/mL and Human sEH at 5 μg/mL).\nInhibitor dissolved in DMSO at the appropriate concentration.\nIn a black 96 well plate, fill all the wells with 150 μL of buffer A.\nAdd 2 μL of DMSO in well A2 and A3, and then add 2 μL of inhibitor solution in A1 and A4 through A12.\nAdd 150 μL of buffer A in row A, then mix several time and transfer 150 μL to row B. Repeat this operation up to row H. The 150 μL removed from row H is discarded.\nAdd 20 μL of buffer A in column 1 and 2, then add 20 μL of enzyme solution to column 3 to 12.\nIncubate the plate for 5 minutes in the plate reader at 30° C.\nDuring incubation prepare the working solution of substrate by mixing 3.68 mL of buffer A (4×0.920 mL) with 266 μL (2×133 μL) of substrate solution).\nAt t=0, add 30 μL of working substrate solution with multi-channel pipette labeled “Briggs 303” and start the reading ([S]final: 5 μM).\nRead with ex: 330 nm (20 nm) and em: 465 nm (20 nm) every 30 second for 10 minutes. The velocities are used to analyze and calculate the IC50s.",
  "data": [
    {"smiles": "CC(=O)N1CCCC(NC(=O)NC23CC4CC(CC(C4)C2)C3)C1", "note": "(stereo not shown) [Compound 1, 1-(1-Acetyl-piperidin-3-yl)-3-adamantan-1-yl-urea]", "values": [
      {"measurement": "% Inhibition at 50 nM", "value": 69, "unit": "%"}
    ]},
    {"smiles": "CS(=O)(=O)N1CCCC(NC(=O)NC23CC4CC(CC(C4)C2)C3)C1", "note": "(stereo not shown) [Compound 2, 1-Adamantan-1-yl-3-(1-methanesulfonyl-piperidin-3-yl)-urea]", "values": [
      {"measurement": "% Inhibition at 50 nM", "value": 76, "unit": "%"}
    ]},
    {"smiles": "O=C(NC1CCCN(S(=O)(=O)c2ccc(Cl)cc2)C1)NC12CC3CC(CC(C3)C1)C2", "note": "(stereo not shown) [Compound 3, 1-Adamantan-1-yl-3-[1-(4-chloro-benzenesulfonyl)-piperidin-3-yl]-urea]", "values": [
      {"measurement": "% Inhibition at 50 nM", "value": 94, "unit": "%"}
    ]},
    {"smiles": "O=C(NC1CCCN(S(=O)(=O)c2cccc(C(F)(F)F)c2)C1)NC12CC3CC(CC(C3)C1)C2", "note": "(stereo not shown) [Compound 4, 1-Adamantan-1-yl-3-[1-(3-trifluoromethyl-benzenesulfonyl)-piperidin-3-yl]-urea]", "values": [
      {"measurement": "% Inhibition at 50 nM", "value": 95, "unit": "%"}
    ]}
  ]
}
